Read-outs that look alike come from different tables or passages of the source.
Tests used:
[1] = test system: MRC5-SV2 cell line; settings: printed in Fig 4; ref [16]; cited from earlier work
[2] = test system: T. b. brucei; settings: cited from earlier work; for T.b.b. pEC50: data from original HTS, ref [13]
[3] = test system: T. cruzi; experiment: β-D-Galactosidase transgenic T. cruzi assay (amastigote-infected L6 cells); type: cell-based, T. cruzi Tulahuen C4 strain; settings: 96 h; for EC50: Trypanosoma cruzi, read-out: T. cruzi pEC50 (converted)
Method: The T. cruzi Tulahuen C4 strain, expressing the β-galactosidase gene (LacZ) and L6 rat skeletal muscle cells, used as host cells, were cultured in RPMI-1640 supplemented with 10% iFBS, 2 mM L-glutamine, 100 U/mL penicillin, and 100 μg/mL streptomycin at 37 °C and 5% CO2.
A Thermo Scientific Multidrop Combi dispenser (MTX Lab Systems, Vienna, VA) was used to dispense 90 μL of T. cruzi amastigote–infected L6 cell culture (4×10^3 infected L6 cells per well) into 96-well Corning assay plates (Corning Inc., Corning, NY) already containing 10 μL of the compounds to be screened and controls. The plates were incubated at 37 °C for 96 h. Then, 30 μL of 100 μM CPRG and 0.1% NP40 diluted in PBS were added to each well, and the plates were incubated for 4 h at 37 °C in the dark. Absorbance at 585 nm was measured in a Vmax kinetic microplate reader ([…]). Compound activities were normalized using the in-plate negative (benznidazole at 10 μg/mL) and positive (0.2% DMSO) growth controls.

[4] = test system: S. mansoni adults and somules; experiment: S. mansoni phenotypic assay, adults and somules (severity score); type: cell-based, Schistosoma mansoni (NMRI isolate); settings: for Adult severity score (10 μM): adults; for Adult severity score (10 μM) / Somule severity score (10 μM): score 0-4; for Somule severity score (10 μM): somules
Method: Maintenance of the Schistosoma mansoni life cycle, preparation of somules (post-infective larvae) and adult worms (≥42-days-old), and co-incubation of these stages with test compounds were as described. An NMRI isolate of S. mansoni was used for all whole-organism screens.
Somules (40 units/well/96w round-bottomed plate) or adults (five paris/well/24w plate) were cultured in the presence of compounds at 10 µM and phenotypic changes observed as a function of time using an Zeiss Axiovert A1 inverted microscope (Table S4). A constrained nomenclature was used to describe the effects of compounds on parasites (changes in shape, motility and density). To generate a partially quantitative output for comparing drug effects, each descriptor was awarded a score of 1 and these were summed to a maximum score of 4 [7-10]: evidence of degeneracy or death was awarded the maximum score of 4. For adults specifically, damage to the tegument (outer surface) was also awarded a score of 4 based on the indication that damage to the patrasite’s surface is lethal in vivo [11]. Assays were performed twice and representative data are shown.

[5] = set-up: method as in PMID 25340575; settings: data from original HTS; ref [13]; cited from earlier work
[6] = test system: L. donovani; experiment: EC50 in L. donovani (infected THP-1 macrophages, luciferase); type: cell-based, Leishmania donovani MHOM/ET/67/HU3; settings: 72 h; for EC50: Leishmania donovani, read-out: L. donovani pEC50 (converted)
Method: Leishmania donovani MHOM/ET/67/HU3 cells with the luciferase gene integrated into the parasite genome[1] were grown at 28 °C in RPMI 1640-modified medium (Invitrogen) supplemented with 20% FBS with […] of hygromycin B.
The Human myelomonocytic cell line THP-1 was grown at 37 °C and 5% CO2 in RPMI-1640 supplemented with 10% iFBS, 2 mM […], 100 U/mL penicillin and […] streptomycin. 3 x 10^4 THP-1 cells per well in 96-well plates were differentiated to macrophages with 20 ng/mL of PMA treatment for 48 h followed by 24 h of culture in fresh medium.
Macrophage-differentiated THP-1 cells were infected at a macrophage/parasite ratio of 1/10 with stationary L. donovani promastigotes for 24 h at 35 °C and 5% CO2, and extracellular parasites were removed by washing with PBS. Infected cell cultures were then incubated with different compounds concentrations at 37 °C for 72 h. Luminescence was measured using the Promega kit luciferase assay system (Promega, Madison, WI). Assays were performed in duplicate at least twice, to achieve a minimal n=3 per dose response.

[7] = Aqueous pH 7.4 solubility; type: physicochemical; settings: aqueous buffer, thermodynamic from solid; pH 7.4 phosphate buffer, 25 °C, 20-24 h; read-out: Aq. Solubility
Method: Compounds are dried down from 10 mM DMSO solutions using centrifugal evaporation technique. Phosphate buffer (0.1 M pH 7.4) added and StirStix inserted in the glass vials, shaking is then performed at a constant temperature of 25 °C for 20-24 h. This step is followed by double centrifugation with a tip wash in between, to ensure that no residues of the dried compound are interfering. The solutions are diluted before analysis and quantification using LC/MS/MS is performed.

[8] = Shake-flask octanol-water Log D7.4; type: physicochemical; settings: pH 7.4, octanol-water shake-flask
Method: Shake-flask octanol-water distribution coefficient at pH 7.4 (Log D7.4). The aqueous solution used is 10 mM sodium phosphate pH 7.4 buffer. The method has been validated for Log D7.4 ranging from -2 to 5.0.

[9] = Human plasma protein binding (equilibrium dialysis); type: in vitro ADME; settings: for fraction unbound at 10 µM: pH 7.4, read-out: PPB (converted)
Method: PPB is determined using equilibrium dialysis (RED device) to separate free from bound compound. The amount of compound in plasma (10 µM initial concentration) and in dialysis buffer (pH 7.4 phosphate buffer) is measured by LC-MS/MS after equilibration at 37 °C in a dialysis chamber. The fraction unbound (fu) is reported.

[10] = Human liver microsomal CLint; type: in vitro ADME; settings: for microsomal CLint: read-out: HLM Clint
Method: In vitro intrinsic clearance determined from human liver microsomes using a standard approach. Following incubation and preparation, the samples are analyzed using LC/MS/MS.

[11] = test system: T. b. brucei; experiment: T. b. brucei growth inhibition EC50 assay (resazurin, 72 h); type: cell-based, Trypanosoma brucei brucei Lister 427; settings: for EC50: Trypanosoma brucei, read-out: T.b.b. pEC50 (converted)
Method: Mid-log phase growth T. b. brucei was diluted to a working cell density of 2,750 cells/mL and 90 μL/well dispensed into 96-well flat-bottom transparent assay plates (Nunc). Ten μL/well from intermediate plates were added. The final top concentration of compounds was 40 μM in 0.4% DMSO per well.
Assay plates were incubated for 72 h at 37°C and 5% CO2. Four hours prior to the end of the incubation, 20 μL of a 440 μM resazurin solution in prewarmed HMI-9 was added to each well and incubated for another 4 h. Fluorescence was then measured in an Infinite F200 plate reader (Tecan) at 550 nm (excitation filter) and 590 nm (emission filter). A 4-parameter equation was employed to fit the dose-response curves and determine of EC50 using the SigmaPlot 13.0 software. Assays were performed in duplicate at least twice, to achieve a minimal n = 3 per dose response.
Bloodstream Trypanosoma brucei brucei Lister 427 was cultured in Hirumi’s modified Iscove’s medium (HMI-9), supplemented with 10% heat-inactivated FBS, at 37 °C and 5% CO2 in T-25 vented flask (Corning®).
For dose-response experiments, compound plates were prepared for each analogue by serial 3-fold dilutions in 100% DMSO. Five concentration points (mammalian cytotoxicity) or ten concentration points (parasite growth inhibition), were made in 96-well transparent Nunclon plates. Pentamidine is routinely included in compound plates as internal quality control, and plates are stored sealed at -20 °C for no more than four weeks.

[12] = test system: MRC5-SV2 cell line; experiment: Cytotoxicity assay in MRC5 (resazurin, 48 h); type: cell-based, human; settings: MRC5 toxicity
Method: For dose-response experiments, compound plates were prepared for each analogue by serial 3-fold dilutions in 100% DMSO. Five concentration points (mammalian cytotoxicity) or ten concentration points (parasite growth inhibition), were made in 96-well transparent Nunclon plates. Pentamidine is routinely included in compound plates as internal quality control, and plates are stored sealed at -20 °C for no more than four weeks. Intermediate plates were made as described, adding 95 μL of DMEM complete media to 5 μL of compound per well setting a 5% DMSO amount. Log-phase MRC5 cells were removed from a T-75 TC flask using TrypLE® Express (Thermo®) and dispersed by gentle pipetting. Cell density was adjusted to working concentration in prewarmed DMEM medium: 25,000 cells in 90 μL of culture were plated in 96-well transparent Nunclon plates and let to settle for 24 h at 37 °C and 5% CO2. After settling incubation, 10 μL of fresh made intermediate plate were added per well: final maximal concentration for compounds was 50 μM in 0.5% DMSO per well. […] Fluorescence was read in an Infinite F200 plate reader (Tecan®) at 550 nm (excitation filter) and 590 nm (emission filter). A 4-parameter equation was used to fit the dose-response curves and determination of EC50 by SigmaPlot ® 13.0 software. Assays were performed in duplicate at least twice for positive compounds, to achieve a minimal n=3 per dose response.

[13] = Rat hepatocyte CLint; type: in vitro ADME; settings: rat hepatocytes
Method: In vitro intrinsic clearance determined from rat hepatocytes using a standard approach. Following incubation and preparation, the samples are analyzed using LC/MS/MS.

[14] = 72 h, resazurin, error within ±0.20 (Table 2) or ±0.08 (Table 3) log units

CCS(=O)(=O)Nc1ccc2c(c1)/C(=C(/Nc1ccc(CN3CCCCC3)cc1)c1ccccc1)C(=O)N2 [Hesperadin, reference compound]
MRC5 pTC50 [1]: 6.69
T.b.brucei pEC50 ([2]; printed in Fig 4, ref [16]): 7.22

CC(C)=Cc1cccc2c1C(=NNc1ccc(S(N)(=O)=O)cc1)C(=O)N2 [NEU-1183]
EC50 [3]: 0.724 µM
activity against S. mansoni adults and/or somules ([4]; 10 μM): moderate and variable activity
Adult severity score (10 μM) ([4]; 3h): 2
Adult severity score (10 μM) ([4]; 6h): 2
Adult severity score (10 μM) ([4]; 24h): 2
Adult severity score (10 μM) ([4]; 48h): 2
Somule severity score (10 μM) ([4]; 24h): 1
Somule severity score (10 μM) ([4]; 48h): 4
Kinetic aq. solubility [5]: <5 µM
EC50 [6]: > 5.01 µM
T.b.b. pEC50 [2]: 7.6

NS(=O)(=O)c1ccc(N/N=C2\C(=O)Nc3ccc4ncccc4c32)cc1 [NEU-1184]
Kinetic aq. solubility [5]: 7.7 µM
T.b.b. pEC50 [2]: 7.1

NS(=O)(=O)c1ccc(N/N=C2\C(=O)Nc3ccc(-c4cnco4)cc32)cc1 [NEU-1185]
Kinetic aq. solubility [5]: 18 µM
T.b.b. pEC50 [2]: 6.4

NS(=O)(=O)c1ccc(N/N=C2\C(=O)Nc3ccccc32)cc1 [NEU-2115, (Z)-4-(2-(2-Oxoindolin-3-ylidene)hydrazinyl)benzenesulfonamide]
EC50 [3]: > 10 µM
solubility [7]: < 8 µM
logD [8]: 2.3
fraction unbound at 10 µM [9]: 0.04
EC50 [6]: > 10 µM
microsomal CLint ([10]; human, liver microsomes): 20.4 µL/min/mg
EC50 [11, 14]: 1.26 µM
MRC5 pTC50 [12]: <4.3

O=C1Nc2ccccc2C1=NNc1ccccc1 [NEU-2116, (Z)-3-(2-Phenylhydrazono)indolin-2-one]
EC50 [3]: > 10 µM
Adult severity score (10 μM) ([4]; 3h): 0
Adult severity score (10 μM) ([4]; 6h): 0
Adult severity score (10 μM) ([4]; 24h): 0
Adult severity score (10 μM) ([4]; 48h): 1
Somule severity score (10 μM) ([4]; 24h): 0
Somule severity score (10 μM) ([4]; 48h): 0
solubility [7]: < 2 µM
logD [8]: > 3.8
fraction unbound at 10 µM [9]: < 0.02
EC50 [6]: > 10 µM
microsomal CLint ([10]; human liver microsomes): 184 µL/min/mg
EC50 ([11]; 72 h): 12.6 µM
MRC5 pTC50 [12]: <4.3

(Z)-3-(2-(4-((Piperidin-1-ylmethyl)sulfonyl)phenyl)hydrazineylidene)indolin-2-one [NEU-4893]
T. cruzi pEC50 [3]: <4.70
Rat Hepatocyte Clint [13]: 148 µL/min/10^6 cells
LogD (7.4) [8]: 2.2
PPB ([9]; 10 µM): 90%
L. donovani pEC50 [6]: <5.30
HLM Clint ([10]; human liver microsomes): <3 µL/min/mg
activity against T. brucei [11]: inactive
T.b.b. pEC50 [11, 14]: 5.0
MRC5 pTC50 [12]: <4.3
